Here are results for nine molecules from patent publication US11098055B2, “Ester ACC inhibitors and uses thereof” (Gilead Apollo, LLC, priority 2015, dated 2021).

SMILES strings stand for the structures. Values after ≈ are worked out from the molar mass of the structure shown.

The subject of one experiment is C. albicans ATCC 90028. Kind of experiment: Anti-Fungal (Candida) Activity Assay, broth microtiter MIC. Format: cell-based. Particulars: ATCC90028, 48 h, 3 replicates, MIC read at 48 h. How it is done:
(§1) Compounds of the present invention were evaluated in an Anti-Fungal Activity Assay. An exemplary procedure for the assay, which measures the susceptibility of various Candida species to anti-fungal compounds, follows. Compounds to be tested (including fluconazole and amphotericin B) were dissolved in DMSO to obtain a solution having a concentration of 1 mg/mL. These stock solutions were sterile filtered using a 0.22 um nylon syringe filter, then diluted in sterile water to achieve a final concentration of 128 μg/mL.
(§2) All species were grown from frozen stock by directly plating on to freshly prepared Sabouraud Dextrose agar (BD, Difco) and incubated overnight in ambient air at 35° C. for 24 h. A direct suspension was prepared in RPMI 1640+MOPS (Lonza, Biowhittaker) by taking individual colonies from the overnight cultures using sterile swabs soaked in sterile saline. The concentration of the suspension was determined using pre-determined standard curves. These suspensions were then diluted down to 5×10^3 CFU/mL to achieve a final concentration of 2.5×10^3 CFU/mL once added to the microtiter plate as per CLSI guidelines (M27-A3, Vol. 28 No. 14).
(§3) Broth microtiter MIC challenge plates were prepared following CLSI guidelines (M27-A3, Vol. 28 No. 14). The original CLSI guidelines focused on reading Candida MICs after 48 h of incubation. As reading after only 24 h offers a clear advantage of patient care, QC limits are being established for all drugs at 24 h. That being said there are no known interpretive breakpoints for amphotericin B at 24 h and the current fluconazole interpretive breakpoints are based on a 48 h reading. The MIC for the test compounds were recorded at 48 h. All MIC determinations were achieved by visually comparing the growth found in the antibiotic challenged wells to that of the growth control.

Experiment [1] relates to C. parapsilosis ATCC 22019. The description is as above. Particulars: Lodderomyces parapsilosis, ATCC22019, 48 h, 3 replicates, MIC read at 48 h. Type of experiment: cell-based. The protocol:
as §1, §2, §3

A further experiment concerns the target hACC2 (Homo sapiens, UniProt O00763). Kind of experiment: In vitro ACC2 inhibition assay (ADP-Glo), human ACC2. Type of experiment: biochemical. How it is done: (§4) An exemplary procedure for the in vitro ACC inhibition assay, which can be used to determine the inhibitory action of compounds of the invention toward either human (hACC2) or fungal (fACC2) ACC2, follows. The ADP-Glo™ Kinase Assay kit from Promega was used. The ADP-Glo™ Kinase Assay is a luminescent ADP detection assay to measure enzymatic activity by quantifying the amount of ADP produced during an enzyme reaction. The assay is performed in two steps; first, after the enzyme reaction, an equal volume of ADP-Glo™ Reagent is added to terminate the reaction and deplete the remaining ATP. Second, the Kinase Detection Reagent is added to simultaneously convert ADP to ATP and allow the newly synthesized ATP to be measured using a luciferase/luciferin reaction. Luminescence can be correlated to ADP concentrations by using an ATP-to-ADP conversion curve. The detailed procedure is as follows. 50 μL of the compound being tested (600 μM in DMSO) was added to a 384-well dilution plate. The compound was diluted 1:3 in succession in DMSO for each row for 11 wells. 0.5 μL ACC2 working solution was added to 384-well white Optiplate assay plate. 0.5 μL diluted compound solution in each column from step 2 was added to assay plate, each row containing 2 replicates. For the last 2 rows, 0.5 μL negative control (DMSO) was added in one row and 0.5 μL positive control (compound I-97) in the other. The plates were incubated at room temperature for 15 minutes. 5 μL substrate working solution was added to each well to initiate reaction. Final ACC2 reaction concentrations consist of: 5 nM ACC2, 20 μM ATP, 20 μM acetyl-CoA, 12 mM NaHCO3, 0.01% Brij35, 2 mM DTT, 5% DMSO, test compound concentrations: 30 μM, 10 μM, 3.33 μM, 1.11 μM, 0.37 μM, 0.123 μM, 0.0411 μM, 0.0137 μM, 0.00457 μM, 0.00152 μM, and 0.00051 μM. Plates were incubated at room temperature for 60 minutes. 10 μL ADP glo reagent was added. Plates were incubated at room temperature for 40 minutes. 20 μL kinase detection reagent was added. Plates were incubated at room temperature for 40 minutes, and then read on a Perkin Elmer EnVision 2104 plate reader for luminescence as Relative Light Units (RLU).
(§5) Data for each concentration, as well as the positive and negative controls, were averaged, and the standard deviation calculated. Percent inhibition was calculated by the formula: 100×(average negative control−compound)/(average negative control−average positive control). The IC50 for each compound was calculated by fitting the data with a non-linear regression equation: Y=Bottom+(Top−Bottom)/(1+10^((Log IC50−X)*HillSlope)), where X is the log of compound concentration and Y is percent inhibition.
In general terms: ADP-Glo turns the ADP formed in a reaction into a luminescent signal.

For the next experiment, the target named is fACC2 (UniProt Q00955). Kind of experiment: In vitro ACC2 inhibition assay (ADP-Glo), fungal ACC2. Format: biochemical. How it is done: as §4, §5
Sequence of fACC2 (Q00955 whole entry): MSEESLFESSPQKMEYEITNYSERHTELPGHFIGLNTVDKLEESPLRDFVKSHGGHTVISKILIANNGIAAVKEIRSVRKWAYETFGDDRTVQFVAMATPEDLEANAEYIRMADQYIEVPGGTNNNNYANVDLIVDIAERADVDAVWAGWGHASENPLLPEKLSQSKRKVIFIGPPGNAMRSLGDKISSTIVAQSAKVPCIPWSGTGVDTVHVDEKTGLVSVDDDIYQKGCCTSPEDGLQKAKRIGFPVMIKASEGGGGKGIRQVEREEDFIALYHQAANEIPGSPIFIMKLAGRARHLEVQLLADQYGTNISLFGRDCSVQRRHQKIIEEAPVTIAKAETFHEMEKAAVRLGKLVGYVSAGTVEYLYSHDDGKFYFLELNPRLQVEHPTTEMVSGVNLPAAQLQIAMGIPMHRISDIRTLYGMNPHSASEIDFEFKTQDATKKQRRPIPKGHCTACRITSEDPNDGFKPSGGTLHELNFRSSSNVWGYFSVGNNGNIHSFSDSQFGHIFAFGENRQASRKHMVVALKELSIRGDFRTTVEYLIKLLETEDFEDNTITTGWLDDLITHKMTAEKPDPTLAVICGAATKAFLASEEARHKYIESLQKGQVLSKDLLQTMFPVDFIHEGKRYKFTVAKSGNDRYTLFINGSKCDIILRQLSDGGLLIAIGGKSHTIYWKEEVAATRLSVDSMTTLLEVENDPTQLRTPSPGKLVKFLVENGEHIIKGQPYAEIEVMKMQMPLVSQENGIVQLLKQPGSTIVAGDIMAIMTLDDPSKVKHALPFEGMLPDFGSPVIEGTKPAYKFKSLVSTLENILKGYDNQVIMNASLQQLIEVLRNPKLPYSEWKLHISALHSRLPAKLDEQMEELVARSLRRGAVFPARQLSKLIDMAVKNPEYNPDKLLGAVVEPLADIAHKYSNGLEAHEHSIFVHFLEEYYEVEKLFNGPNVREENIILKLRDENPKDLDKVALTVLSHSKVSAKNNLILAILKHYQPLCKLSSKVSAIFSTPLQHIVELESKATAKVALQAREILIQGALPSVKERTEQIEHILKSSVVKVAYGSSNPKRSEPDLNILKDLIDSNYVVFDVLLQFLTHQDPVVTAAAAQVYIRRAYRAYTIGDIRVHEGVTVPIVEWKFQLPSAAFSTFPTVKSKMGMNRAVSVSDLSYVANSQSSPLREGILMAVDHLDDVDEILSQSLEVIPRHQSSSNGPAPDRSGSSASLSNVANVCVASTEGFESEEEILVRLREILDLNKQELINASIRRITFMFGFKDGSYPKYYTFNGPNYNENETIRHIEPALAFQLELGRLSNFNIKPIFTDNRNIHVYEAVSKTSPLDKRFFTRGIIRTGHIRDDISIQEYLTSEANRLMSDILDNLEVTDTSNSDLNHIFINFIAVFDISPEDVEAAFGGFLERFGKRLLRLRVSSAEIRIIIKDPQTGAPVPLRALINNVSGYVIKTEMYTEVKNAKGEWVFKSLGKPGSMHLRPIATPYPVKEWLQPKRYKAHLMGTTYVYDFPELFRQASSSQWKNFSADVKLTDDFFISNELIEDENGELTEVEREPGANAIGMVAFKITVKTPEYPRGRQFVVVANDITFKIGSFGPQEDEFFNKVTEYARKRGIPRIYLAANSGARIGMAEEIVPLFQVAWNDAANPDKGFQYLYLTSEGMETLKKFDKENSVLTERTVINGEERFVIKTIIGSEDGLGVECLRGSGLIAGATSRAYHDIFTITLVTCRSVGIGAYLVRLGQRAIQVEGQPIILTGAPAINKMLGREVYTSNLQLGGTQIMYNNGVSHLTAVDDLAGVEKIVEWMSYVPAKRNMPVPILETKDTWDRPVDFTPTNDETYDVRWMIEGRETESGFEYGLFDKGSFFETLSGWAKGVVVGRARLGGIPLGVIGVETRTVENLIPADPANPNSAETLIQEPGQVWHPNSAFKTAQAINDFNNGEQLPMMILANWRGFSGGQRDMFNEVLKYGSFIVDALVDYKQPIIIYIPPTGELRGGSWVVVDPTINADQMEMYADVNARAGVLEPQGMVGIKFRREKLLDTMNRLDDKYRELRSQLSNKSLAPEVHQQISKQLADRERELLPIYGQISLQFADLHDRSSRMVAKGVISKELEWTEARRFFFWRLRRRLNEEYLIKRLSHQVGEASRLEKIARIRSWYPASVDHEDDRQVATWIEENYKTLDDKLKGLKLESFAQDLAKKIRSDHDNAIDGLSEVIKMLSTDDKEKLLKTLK

Sequence of hACC2 (O00763 whole entry): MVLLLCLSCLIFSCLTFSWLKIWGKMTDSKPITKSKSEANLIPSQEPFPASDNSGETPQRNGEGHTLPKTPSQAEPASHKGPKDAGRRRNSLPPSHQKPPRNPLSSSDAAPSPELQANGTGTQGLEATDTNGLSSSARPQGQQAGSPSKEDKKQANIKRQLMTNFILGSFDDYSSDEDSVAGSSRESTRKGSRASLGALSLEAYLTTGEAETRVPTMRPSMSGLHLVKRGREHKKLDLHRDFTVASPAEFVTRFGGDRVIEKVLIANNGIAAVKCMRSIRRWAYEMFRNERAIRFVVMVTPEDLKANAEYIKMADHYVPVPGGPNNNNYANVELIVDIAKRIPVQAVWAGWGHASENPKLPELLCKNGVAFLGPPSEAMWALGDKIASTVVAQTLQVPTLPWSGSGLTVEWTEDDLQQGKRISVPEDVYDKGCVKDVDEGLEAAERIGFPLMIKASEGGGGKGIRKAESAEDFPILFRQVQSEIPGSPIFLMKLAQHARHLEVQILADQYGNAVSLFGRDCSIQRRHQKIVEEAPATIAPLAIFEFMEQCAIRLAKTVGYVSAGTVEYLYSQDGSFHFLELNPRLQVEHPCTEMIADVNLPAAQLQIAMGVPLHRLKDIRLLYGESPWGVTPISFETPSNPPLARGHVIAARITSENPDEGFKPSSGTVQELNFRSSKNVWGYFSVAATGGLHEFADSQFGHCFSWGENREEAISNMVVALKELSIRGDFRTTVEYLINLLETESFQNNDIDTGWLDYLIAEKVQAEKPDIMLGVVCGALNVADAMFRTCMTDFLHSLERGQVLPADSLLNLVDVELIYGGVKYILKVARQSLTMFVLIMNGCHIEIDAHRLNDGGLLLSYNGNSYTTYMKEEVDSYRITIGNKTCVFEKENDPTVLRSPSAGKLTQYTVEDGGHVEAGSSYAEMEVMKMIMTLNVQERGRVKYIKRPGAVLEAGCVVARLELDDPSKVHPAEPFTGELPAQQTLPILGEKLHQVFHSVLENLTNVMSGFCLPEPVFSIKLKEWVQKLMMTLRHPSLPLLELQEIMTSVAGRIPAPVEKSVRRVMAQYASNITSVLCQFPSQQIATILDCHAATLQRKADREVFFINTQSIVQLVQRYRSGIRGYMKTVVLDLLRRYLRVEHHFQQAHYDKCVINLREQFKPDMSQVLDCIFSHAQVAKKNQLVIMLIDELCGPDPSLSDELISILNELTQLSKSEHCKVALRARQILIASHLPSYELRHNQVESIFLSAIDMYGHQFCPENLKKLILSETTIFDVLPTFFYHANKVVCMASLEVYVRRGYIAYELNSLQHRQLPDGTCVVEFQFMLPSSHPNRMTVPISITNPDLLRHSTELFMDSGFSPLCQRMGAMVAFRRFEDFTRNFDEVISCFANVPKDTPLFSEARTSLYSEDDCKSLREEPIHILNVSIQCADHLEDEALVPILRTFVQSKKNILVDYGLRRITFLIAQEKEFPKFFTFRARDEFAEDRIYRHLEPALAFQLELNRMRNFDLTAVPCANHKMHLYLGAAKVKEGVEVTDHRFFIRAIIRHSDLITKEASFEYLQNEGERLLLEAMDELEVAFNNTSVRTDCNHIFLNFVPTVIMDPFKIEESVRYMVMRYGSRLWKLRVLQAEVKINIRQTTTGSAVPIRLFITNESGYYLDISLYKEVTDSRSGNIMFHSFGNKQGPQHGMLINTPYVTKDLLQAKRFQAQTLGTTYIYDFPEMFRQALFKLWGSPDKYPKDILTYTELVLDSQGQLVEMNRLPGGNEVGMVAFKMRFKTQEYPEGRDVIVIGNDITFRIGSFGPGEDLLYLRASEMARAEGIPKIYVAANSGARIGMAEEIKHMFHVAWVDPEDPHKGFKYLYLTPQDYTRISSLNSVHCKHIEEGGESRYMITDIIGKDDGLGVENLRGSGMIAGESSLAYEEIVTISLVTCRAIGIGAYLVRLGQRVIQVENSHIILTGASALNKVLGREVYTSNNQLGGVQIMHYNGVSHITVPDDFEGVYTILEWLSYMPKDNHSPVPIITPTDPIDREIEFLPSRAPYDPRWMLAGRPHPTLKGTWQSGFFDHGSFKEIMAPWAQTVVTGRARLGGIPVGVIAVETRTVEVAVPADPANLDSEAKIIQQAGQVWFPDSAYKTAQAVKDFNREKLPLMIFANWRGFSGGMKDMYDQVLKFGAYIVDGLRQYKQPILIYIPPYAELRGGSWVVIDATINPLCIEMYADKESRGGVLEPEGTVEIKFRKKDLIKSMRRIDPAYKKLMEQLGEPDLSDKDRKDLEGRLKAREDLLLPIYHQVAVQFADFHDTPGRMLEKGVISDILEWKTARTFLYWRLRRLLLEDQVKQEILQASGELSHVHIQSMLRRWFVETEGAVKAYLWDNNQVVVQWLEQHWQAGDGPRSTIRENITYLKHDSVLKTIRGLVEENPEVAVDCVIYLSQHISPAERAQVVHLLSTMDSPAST

As for `CCOC(=O)c1sc2c(c1C)c(=O)n(C(C)(C)C(=O)N1CCCCC1)c(=O)n2C[C@H](OC1CCOCC1)c1ccccc1OC` [Compound I-2, ethyl (R)-1-(2-(2-methoxyphenyl)-2-((tetrahydro-2H-pyran-4-yl)oxy)ethyl)-5-methyl-3-(2-methyl-1-oxo-1-(piperidin-1-yl)propan-2-yl)-2,4-dioxo-1,2,3,4-tetrahydrothieno[2,3-d]pyrimidine-6-carboxylate], the MIC (in the experiment on C. albicans ATCC 90028 (Table 3a); against C. albicans ATCC 90028 (Table 3b (additional results)); in experiment [1] (Table 3a); in experiment [1] (Table 3b (additional results))) was 0.25 to 1 µg/mL (≈ 0.39 to 1.56 µM) each time. The IC50 (commonly the concentration needed to halve the response being measured) lay within 10 to 40 nM against hACC2 (Table 2a), 10 to 40 nM on hACC2 (Table 2b (additional results)), 0.6 to 3 nM on fACC2 (Table 2a) and 0.3 to 3 nM against fACC2 (Table 2b (additional results)).
Turning to `CCOC(=O)c1sc2c(c1C)c(=O)n(C(C)(C)C(=O)N1CCCC1)c(=O)n2C[C@H](OC1CCOCC1)c1ccccc1OC` [Compound I-3, ethyl (R)-1-(2-(2-methoxyphenyl)-2-((tetrahydro-2H-pyran-4-yl)oxy)ethyl)-5-methyl-3-(2-methyl-1-oxo-1-(pyrrolidin-1-yl)propan-2-yl)-2,4-dioxo-1,2,3,4-tetrahydrothieno[2,3-d]pyrimidine-6-carboxylate], the minimum inhibitory concentration (MIC) (with C. albicans ATCC 90028 (Table 3a); with C. albicans ATCC 90028 (Table 3b (additional results)); in experiment [1] (Table 3a); in experiment [1] (Table 3b (additional results))) was 0.25 to 1 µg/mL (≈ 0.398 to 1.59 µM) each time. In addition, the half-maximal inhibitory concentration (IC50) against hACC2 (Table 2a) lay within 10 to 40 nM; on hACC2 (Table 2b (additional results)), 10 to 40 nM; on fACC2 (Table 2a), 0.6 to 3 nM; against fACC2 (Table 2b (additional results)), 0.3 to 3 nM.
Regarding `CCNC(=O)C(C)(C)n1c(=O)c2c(C)c(C(=O)OCC)sc2n(C[C@H](OC(C)C)c2ccccc2OC)c1=O` [Compound I-4, (R)-ethyl 3-(1-(ethylamino)-2-methyl-1-oxopropan-2-yl)-1-(2-isopropoxy-2-(2-methoxyphenyl)ethyl)-5-methyl-2,4-dioxo-1,2,3,4-tetrahydrothieno[2,3-d]pyrimidine-6-carboxylate], the minimal inhibitory concentration (MIC) (commonly the lowest concentration found to suppress growth) in the experiment on C. albicans ATCC 90028 (Table 3a) was 2.1 to 4 µg/mL (≈ 3.75 to 7.15 µM); against C. albicans ATCC 90028 (Table 3b (additional results)), 2.1 to 4 µg/mL (≈ 3.75 to 7.15 µM); in experiment [1] (Table 3a), > 4.1 µg/mL; in experiment [1] (Table 3b (additional results)), 2.1 to 4 µg/mL (≈ 3.75 to 7.15 µM). Besides, the IC50 against hACC2 (Table 2a) fell in the range of 10 to 40 nM; at hACC2 (Table 2b (additional results)) it was 10 to 40 nM; at fACC2 (Table 2a) it was 3 to 10 nM; against fACC2 (Table 2b (additional results)), 3 to 10 nM.
For the molecule `CCOC(=O)c1sc2c(c1C)c(=O)n(C(C)(C)C(=O)N1CCOCC1)c(=O)n2C[C@H](OC(C)C)c1ccccc1OC` [Compound I-5, (R)-ethyl 1-(2-isopropoxy-2-(2-methoxyphenyl)ethyl)-5-methyl-3-(2-methyl-1-morpholino-1-oxopropan-2-yl)-2,4-dioxo-1,2,3,4-tetrahydrothieno[2,3-d]pyrimidine-6-carboxylate], the MIC in the experiment with C. albicans ATCC 90028 (Table 3a) is > 4.1 µg/mL; in the experiment on C. albicans ATCC 90028 (Table 3b (additional results)) it was > 4.1 µg/mL; in experiment [1] (Table 3a), > 4.1 µg/mL; in experiment [1] (Table 3b (additional results)), 2.1 to 4 µg/mL (≈ 3.49 to 6.65 µM). In addition, the IC50 at hACC2 (Table 2a) lay within 10 to 40 nM; against hACC2 (Table 2b (additional results)) it was 10 to 40 nM; against fACC2 (Table 2a) it was 3 to 10 nM; on fACC2 (Table 2b (additional results)) it was 3 to 10 nM.
In the case of `CCOC(=O)c1sc2c(c1C)c(=O)n(C(C)(C)C(=O)N1CCCCC1)c(=O)n2C[C@H](OC(C)C)c1ccccc1OC` [Compound I-6, (R)-ethyl 1-(2-isopropoxy-2-(2-methoxyphenyl)ethyl)-5-methyl-3-(2-methyl-1-oxo-1-(piperidin-1-yl)propan-2-yl)-2,4-dioxo-1,2,3,4-tetrahydrothieno[2,3-d]pyrimidine-6-carboxylate], the MIC against C. albicans ATCC 90028 (Table 3a) was 2.1 to 4 µg/mL (≈ 3.5 to 6.67 µM); against C. albicans ATCC 90028 (Table 3b (additional results)), 2.1 to 4 µg/mL (≈ 3.5 to 6.67 µM); in experiment [1] (Table 3a), > 4.1 µg/mL; in experiment [1] (Table 3b (additional results)), 2.1 to 4 µg/mL (≈ 3.5 to 6.67 µM). In addition, the 50% inhibitory concentration (IC50) on hACC2 (Table 2a) was 10 to 40 nM; on hACC2 (Table 2b (additional results)), 10 to 40 nM; at fACC2 (Table 2a), 0.6 to 3 nM; against fACC2 (Table 2b (additional results)), 0.3 to 3 nM.
Regarding `CCOC(=O)c1sc2c(c1C)c(=O)n(C(C)(C)C(=O)N1CCCC1)c(=O)n2C[C@H](OC(C)C)c1ccccc1OC` [Compound I-7, (R)-ethyl 1-(2-isopropoxy-2-(2-methoxyphenyl)ethyl)-5-methyl-3-(2-methyl-1-oxo-1-(pyrrolidin-1-yl)propan-2-yl)-2,4-dioxo-1,2,3,4-tetrahydrothieno[2,3-d]pyrimidine-6-carboxylate], the MIC (with C. albicans ATCC 90028 (Table 3a); in the experiment with C. albicans ATCC 90028 (Table 3b (additional results)); in experiment [1] (Table 3a); in experiment [1] (Table 3b (additional results))) was 2.1 to 4 µg/mL (≈ 3.59 to 6.83 µM) throughout. The IC50 against hACC2 (Table 2a) fell in the range of 10 to 40 nM; at hACC2 (Table 2b (additional results)) it was 10 to 40 nM; against fACC2 (Table 2a), 0.6 to 3 nM; at fACC2 (Table 2b (additional results)), 0.3 to 3 nM.
Consider `CCOC(=O)c1sc2c(c1C)c(=O)n(C(C)(C)C(=O)NC(C)C)c(=O)n2C[C@H](OC1CCOCC1)c1ccccc1OC` [Compound I-8, (R)-ethyl 3-(1-(isopropylamino)-2-methyl-1-oxopropan-2-yl)-1-(2-(2-methoxyphenyl)-2-((tetrahydro-2H-pyran-4-yl)oxy)ethyl)-5-methyl-2,4-dioxo-1,2,3,4-tetrahydrothieno[2,3-d]pyrimidine-6-carboxylate], for which the minimum inhibitory concentration (MIC) against C. albicans ATCC 90028 (Table 3a) lay within 1.1 to 2 µg/mL (≈ 1.79 to 3.25 µM); with C. albicans ATCC 90028 (Table 3b (additional results)) it was 1.1 to 2 µg/mL (≈ 1.79 to 3.25 µM); in experiment [1] (Table 3a), 1.1 to 2 µg/mL (≈ 1.79 to 3.25 µM); in experiment [1] (Table 3b (additional results)) it was 2.1 to 4 µg/mL (≈ 3.41 to 6.5 µM). Also, the IC50 against hACC2 (Table 2a) fell in the range of 10 to 40 nM; against hACC2 (Table 2b (additional results)), 10 to 40 nM; on fACC2 (Table 2a), 0.6 to 3 nM; against fACC2 (Table 2b (additional results)), 0.3 to 3 nM.
As to `CCOC(=O)c1sc2c(c1C)c(=O)n(C(C)(C)C(=O)NC(C)C)c(=O)n2C[C@H](OC(C)C)c1ccccc1OC` [Compound I-9, (R)-ethyl 1-(2-isopropoxy-2-(2-methoxyphenyl)ethyl)-3-(1-(isopropylamino)-2-methyl-1-oxopropan-2-yl)-5-methyl-2,4-dioxo-1,2,3,4-tetrahydrothieno[2,3-d]pyrimidine-6-carboxylate], the MIC with C. albicans ATCC 90028 (Table 3a) is 1.1 to 2 µg/mL (≈ 1.92 to 3.49 µM); in the experiment with C. albicans ATCC 90028 (Table 3b (additional results)), 1.1 to 2 µg/mL (≈ 1.92 to 3.49 µM); in experiment [1] (Table 3a) it was 2.1 to 4 µg/mL (≈ 3.66 to 6.97 µM); in experiment [1] (Table 3b (additional results)) it was 2.1 to 4 µg/mL (≈ 3.66 to 6.97 µM). Besides, the IC50 fell in the range of 10 to 40 nM against hACC2 (Table 2a), 10 to 40 nM at hACC2 (Table 2b (additional results)), 0.6 to 3 nM against fACC2 (Table 2a) and 0.3 to 3 nM on fACC2 (Table 2b (additional results)).
`CCOC(=O)c1sc2c(c1C)c(=O)n(C(C)(C)C(=O)NC(C)C)c(=O)n2C[C@H](O)c1cc(F)ccc1OC` [Compound I-19, (R)-ethyl 1-(2-(5-fluoro-2-methoxyphenyl)-2-hydroxyethyl)-3-(1-(isopropylamino)-2-methyl-1-oxopropan-2-yl)-5-methyl-2,4-dioxo-1,2,3,4-tetrahydrothieno[2,3-d]pyrimidine-6-carboxylate]: the MIC with C. albicans ATCC 90028 (Table 3b (additional results)) lay in the range of 0.25 to 1 µg/mL (≈ 0.455 to 1.82 µM); in experiment [1] (Table 3b (additional results)), 2.1 to 4 µg/mL (≈ 3.82 to 7.28 µM). This molecule displayed an IC50 against hACC2 (Table 2b (additional results)) of 3 to 10 nM.
